In ChEMBL document CHEMBL1137893, “Active site inhibitors of HCV NS5B polymerase. The development and pharmacophore of 2-thienyl-5,6-dihydroxypyrimidine-4-carboxylic acid” (Bioorg Med Chem Lett, 2004):

These compounds were tested against RNA-directed RNA polymerase (Hepacivirus hominis, UniProt O39930) (assay: inhibitory concentration against RNA dependent RNA polymerase Nonstructural protein 5B of hepatitis C virus).
Sequence of RNA-directed RNA polymerase (O39930 whole entry): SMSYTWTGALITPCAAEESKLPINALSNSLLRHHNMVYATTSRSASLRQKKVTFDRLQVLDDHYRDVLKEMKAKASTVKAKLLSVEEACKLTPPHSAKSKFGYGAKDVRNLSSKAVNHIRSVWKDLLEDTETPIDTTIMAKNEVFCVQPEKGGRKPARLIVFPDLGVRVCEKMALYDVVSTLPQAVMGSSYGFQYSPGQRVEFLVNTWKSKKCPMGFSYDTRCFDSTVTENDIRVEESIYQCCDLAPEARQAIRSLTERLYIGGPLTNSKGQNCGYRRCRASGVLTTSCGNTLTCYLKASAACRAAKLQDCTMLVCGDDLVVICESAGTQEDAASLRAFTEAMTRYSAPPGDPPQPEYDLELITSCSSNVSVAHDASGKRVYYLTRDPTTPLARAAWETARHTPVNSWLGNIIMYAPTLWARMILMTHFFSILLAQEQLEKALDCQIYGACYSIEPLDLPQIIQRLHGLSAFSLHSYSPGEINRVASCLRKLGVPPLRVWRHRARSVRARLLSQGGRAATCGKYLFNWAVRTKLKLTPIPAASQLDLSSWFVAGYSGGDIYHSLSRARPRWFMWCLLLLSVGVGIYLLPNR

Row | Structure (SMILES) | IC50 [µM]
1 | O=C(O)c1nc(-c2cccs2)nc(O)c1O | 2.6
2 | CS(=O)(=O)c1nc(-c2cccs2)nc(C(=O)O)c1O | 49
3 | O=C(O)c1nc(-c2ccccc2)nc(O)c1O | 30
4 | COc1nc(-c2cccs2)nc(C(=O)O)c1O | 50
5 | O=C(NS(=O)(=O)C(F)(F)F)c1nc(-c2cccs2)[nH]c(=O)c1O | 6.2
6 | O=C(O)C(=O)/C=C(\O)c1ccccc1 | 5.7
7 | Cn1c(-c2cccs2)nc(C(=O)O)c(O)c1=O | 4.2

These compounds were tested against RNA-directed RNA polymerase (Hepacivirus hominis) (UniProt O39930) (assay: Percentage inhibition of RNA dependent RNA polymerase Nonstructural protein 5B of hepatitis C virus at 50 uM).
Sequence of RNA-directed RNA polymerase (Hepacivirus hominis) (O39930 1-591): as the sequence (O39930 whole entry) above

Row | Structure (SMILES) | inhibition [%]
8 | O=C(NS(=O)(=O)Cc1ccccc1)c1nc(-c2cccs2)nc(O)c1O | < 30
9 | O=C(O)c1[nH]c(-c2cccs2)nc2ncnc1-2 | < 30
10 | O=C(O)c1nc(-c2ccccn2)nc(O)c1O | < 30
11 | Oc1nc(-c2cccs2)nc(-c2nn[nH]n2)c1O | < 30
12 | O=C(O)c1nc(-c2cccs2)ncc1O | < 30
13 | CS(=O)(=O)Nc1nc(-c2cccs2)nc(C(=O)O)c1O | < 30
14 | O=P(O)(O)c1nc(-c2cccs2)nc(O)c1O | < 30
15 | COC(=O)c1nc(-c2cccs2)nc(O)c1O | < 30
